The source of these data is patent US12172967B1, “3-(4,5-bis(4-bromophenyl)-2-(4-chlorophenyl)-1H-imidazol-1-yl)propanoic acid as an antimicrobial compound” (KING FAISAL UNIVERSITY, priority 2023, dated 2024).

Each structure is given as a SMILES string.

Holding throughout (type): cell-based
The subject of one experiment is Pseudomonas aeruginosa. The experiment is described as follows: agar plate disc-diffusion, antibacterial, Pseudomonas aeruginosa. As to conditions: nutrient agar, 37° C., 48 h. The method, then: (§1) The agar plate disc-diffusion method was applied. […] The discs were then placed onto the surface of agar plates (nutrient agar for bacteria and Sabouraud's dextrose agar for fungi) seeded with the test organism. Each plate contained 15 mL of the agar medium, previously seeded with 0.2 mL of the broth culture of each organism pregrown for 18 h. The plates were incubated at 37° C. for 48 h, and 72 h for fungi. The inhibition zones was measured in mm. Discs impregnated with DMSO were used as a control, and its inhibition zone was subtracted from the tested compound actual inhibition zone.

The test system of another experiment is Aspergillus flavus. Nature of the experiment: agar plate disc-diffusion, antifungal, Aspergillus flavus. As to conditions: Sabouraud's dextrose agar, 37° C., 72 h. The method, then:
as §1
On the technique in general: In agar diffusion tests the substance spreads into inoculated agar from a disc or well.

A further experiment relates to Bacillus cereus. The experiment is described as follows: agar plate disc-diffusion, antibacterial, Bacillus cereus. As to conditions: nutrient agar, 37° C., 48 h. As to the method:
as §1

Another experiment relates to Escherichia coli. Nature of the experiment: agar plate disc-diffusion, antibacterial, Escherichia coli. As to conditions: nutrient agar, 37° C., 48 h. As to the method:
as §1

Experiment [1] has as its system Chrysosporium keratinophilum. The experiment is described as follows: agar plate disc-diffusion, antifungal, Chrysosporium keratinophilum. As to conditions: Sabouraud's dextrose agar, 37° C., 72 h. As to the method: as §1
The test system of the next experiment is Staphylococcus aureus. Nature of the experiment: agar plate disc-diffusion, antibacterial, Staphylococcus aureus. As to conditions: nutrient agar, 37° C., 48 h. The method, then:
as §1

[2] abbreviates: A = concentration of comp. = 10,000 μL.
Where [3] appears, read: B = concentration of comp. = 30,000 μL.
[4] abbreviates: C = concentration of comp. = 50,000 μL.

As for `O=C(O)CCn1c(-c2ccc(Cl)cc2)nc(-c2ccc(Br)cc2)c1-c1ccc(Br)cc1` [V, 3-(4,5-bis(4-bromophenyl)-2-(4-chlorophenyl)-1H-imidazol-1-yl)propanoic acid], in the experiment on Pseudomonas aeruginosa (setting [2]), the “inhibition zone, Pseudomonas aeruginosa, A” value came to 25 mm. Moreover, the “inhibition zone, Pseudomonas aeruginosa, B” value in the experiment on Pseudomonas aeruginosa (setting [3]) was 27 mm. Moreover, the “inhibition zone, Pseudomonas aeruginosa, C” value in the experiment on Pseudomonas aeruginosa (setting [4]) stood at 41 mm. Moreover, in the experiment with Aspergillus flavus (setting [2]), the “inhibition zone, Aspergillus flavus, A” value is listed as 23 mm. Moreover, the “inhibition zone, Aspergillus flavus, B” value in the experiment with Aspergillus flavus (setting [3]) came out at 27 mm. Besides, the “inhibition zone, Aspergillus flavus, C” value in the experiment on Aspergillus flavus (setting [4]) turned out to be 36 mm. In the experiment with Bacillus cereus (setting [2]), the “inhibition zone, Bacillus Cereus, A” value is on record as 19 mm. In addition, the “inhibition zone, Bacillus Cereus, B” value with Bacillus cereus (setting [3]) worked out at 21 mm. In addition, the “inhibition zone, Bacillus Cereus, C” value in the experiment on Bacillus cereus (setting [4]) was determined as 29 mm. Besides, the “inhibition zone, Escherichia coli, A” value in the experiment with Escherichia coli (setting [2]) turned out to be 28 mm. For the same compound, the “inhibition zone, Escherichia coli, B” value in the experiment with Escherichia coli (setting [3]) amounted to 37 mm. Besides, the “inhibition zone, Escherichia coli, C” value with Escherichia coli (setting [4]) was found to be 51 mm. The “inhibition zone, Chrysosporium keratinophilum, A” value in experiment [1] (setting [2]) is given as 24 mm. Besides, the “inhibition zone, Chrysosporium keratinophilum, B” value in experiment [1] (setting [3]) turned out to be 26 mm. The “inhibition zone, Chrysosporium keratinophilum, C” value in experiment [1] (setting [4]) came out at 47 mm. The “inhibition zone, Staphylococcus aureus, A” value in the experiment with Staphylococcus aureus (setting [2]) was 17 mm. Besides, the “inhibition zone, Staphylococcus aureus, B” value with Staphylococcus aureus (setting [3]) was found to be 19 mm. Moreover, the “inhibition zone, Staphylococcus aureus, C” value with Staphylococcus aureus (setting [4]) turned out to be 26 mm.
